Test results taken from PubChem BioAssay (NCI).
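A five-concentration, 48-hour dose response in 96-well plates underlies each endpoint, interpolated linearly between surrounding concentrations. GI50: concentration for 50% inhibition of growth. TGI marks complete inhibition of growth.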

Key:
Test in all cases: NCI-60 cell line screen, 48 h
786-0 renal = test system: 786-0 renal
A498 renal = test system: A498 renal
A549 NSCLC = test system: A549 NSCLC
ACHN renal = test system: ACHN renal
BT-549 breast = test system: BT-549 breast
CAKI-1 renal = test system: CAKI-1 renal
CCRF-CEM leukemia = test system: CCRF-CEM leukemia
COLO 205 colon = test system: COLO 205 colon
DU-145 prostate = test system: DU-145 prostate
EKVX NSCLC = test system: EKVX NSCLC
HCC-2998 colon = test system: HCC-2998 colon
HCT-116 colon = test system: HCT-116 colon
HCT-15 colon = test system: HCT-15 colon
HL-60(TB) leukemia = test system: HL-60(TB) leukemia
HOP-62 NSCLC = test system: HOP-62 NSCLC
HOP-92 NSCLC = test system: HOP-92 NSCLC
HS 578T breast = test system: HS 578T breast
HT29 colon = test system: HT29 colon
IGROV1 ovarian = test system: IGROV1 ovarian
K-562 leukemia = test system: K-562 leukemia
KM12 colon = test system: KM12 colon
LOX IMVI melanoma = test system: LOX IMVI melanoma
M14 melanoma = test system: M14 melanoma
MALME-3M melanoma = test system: MALME-3M melanoma
MCF7 breast = test system: MCF7 breast
MDA-MB-231 breast = test system: MDA-MB-231 breast
MDA-MB-435 = test system: MDA-MB-435
MDA-MB-468 breast = test system: MDA-MB-468 breast
MOLT-4 leukemia = test system: MOLT-4 leukemia
NCI-H226 lung = test system: NCI-H226 lung
NCI-H23 lung = test system: NCI-H23 lung
NCI-H460 lung = test system: NCI-H460 lung
NCI-H522 lung = test system: NCI-H522 lung
NCI/ADR-RES ovarian = test system: NCI/ADR-RES ovarian
OVCAR-3 ovarian = test system: OVCAR-3 ovarian
OVCAR-4 ovarian = test system: OVCAR-4 ovarian
OVCAR-5 ovarian = test system: OVCAR-5 ovarian
OVCAR-8 ovarian = test system: OVCAR-8 ovarian
PC-3 prostate = test system: PC-3 prostate
RPMI-8226 leukemia = test system: RPMI-8226 leukemia
RXF 393 renal = test system: RXF 393 renal
SF-268 CNS = test system: SF-268 CNS
SF-295 CNS = test system: SF-295 CNS
SF-539 CNS = test system: SF-539 CNS
SK-MEL-2 melanoma = test system: SK-MEL-2 melanoma
SK-MEL-28 melanoma = test system: SK-MEL-28 melanoma
SK-MEL-5 melanoma = test system: SK-MEL-5 melanoma
SK-OV-3 ovarian = test system: SK-OV-3 ovarian
SN12C renal = test system: SN12C renal
SNB-19 CNS = test system: SNB-19 CNS
SNB-75 CNS = test system: SNB-75 CNS
SW-620 colon = test system: SW-620 colon
T-47D breast = test system: T-47D breast
TK-10 renal = test system: TK-10 renal
U251 CNS = test system: U251 CNS
UACC-257 melanoma = test system: UACC-257 melanoma
UACC-62 melanoma = test system: UACC-62 melanoma
UO-31 renal = test system: UO-31 renal

SMILES: CN(C)c1nc(NCCNS(=O)(=O)c2ccc(C(=O)/C=C/c3ccc(C(F)(F)F)cc3)cc2)nc(Nc2ccc(F)cc2)n1
- GI50 (786-0 renal): 10.6 µM
- TGI (786-0 renal): 22.7 µM
- GI50 (A498 renal): 13 µM
- TGI (A498 renal): 26.2 µM
- GI50 (A549 NSCLC): 10 µM
- TGI (A549 NSCLC): 25.4 µM
- GI50 (ACHN renal): 5.08 µM
- TGI (ACHN renal): 17.4 µM
- GI50 (BT-549 breast): 12.7 µM
- TGI (BT-549 breast): 25.6 µM
- GI50 (CAKI-1 renal): 6.46 µM
- TGI (CAKI-1 renal): 19.7 µM
- GI50 (CCRF-CEM leukemia): 3.79 µM
- TGI (CCRF-CEM leukemia): > 100 µM
- GI50 (COLO 205 colon): 11.2 µM
- TGI (COLO 205 colon): 24.8 µM
- GI50 (DU-145 prostate): 11.2 µM
- TGI (DU-145 prostate): 24 µM
- GI50 (EKVX NSCLC): 4.2 µM
- TGI (EKVX NSCLC): 15.7 µM
- GI50 (HCC-2998 colon): 1.77 µM
- TGI (HCC-2998 colon): 3.61 µM
- GI50 (HCT-116 colon): 1.68 µM
- TGI (HCT-116 colon): 3.13 µM
- GI50 (HCT-15 colon): 3.22 µM
- TGI (HCT-15 colon): 11.9 µM
- GI50 (HL-60(TB) leukemia): 3.82 µM
- TGI (HL-60(TB) leukemia): 30 µM
- GI50 (HOP-62 NSCLC): 13.6 µM
- TGI (HOP-62 NSCLC): 27.7 µM
- GI50 (HOP-92 NSCLC): 6.15 µM
- TGI (HOP-92 NSCLC): 20.7 µM
- GI50 (HS 578T breast): 12.7 µM
- TGI (HS 578T breast): 49.5 µM
- GI50 (HT29 colon): 1.91 µM
- TGI (HT29 colon): 3.95 µM
- GI50 (IGROV1 ovarian): 12.3 µM
- TGI (IGROV1 ovarian): 24.9 µM
- GI50 (K-562 leukemia): 2.98 µM
- TGI (K-562 leukemia): 30.4 µM
- GI50 (KM12 colon): 2.38 µM
- TGI (KM12 colon): 6 µM
- GI50 (LOX IMVI melanoma): 1.86 µM
- TGI (LOX IMVI melanoma): 3.84 µM
- GI50 (M14 melanoma): 3.39 µM
- TGI (M14 melanoma): 12.9 µM
- GI50 (MALME-3M melanoma): 14.2 µM
- TGI (MALME-3M melanoma): 27.5 µM
- GI50 (MCF7 breast): 1.7 µM
- TGI (MCF7 breast): 3.56 µM
- GI50 (MDA-MB-231 breast): 8.38 µM
- TGI (MDA-MB-231 breast): 20.8 µM
- GI50 (MDA-MB-435): 2.86 µM
- TGI (MDA-MB-435): 8.49 µM
- GI50 (MDA-MB-468 breast): 4.53 µM
- TGI (MDA-MB-468 breast): 17 µM
- GI50 (MOLT-4 leukemia): 2.9 µM
- TGI (MOLT-4 leukemia): 9.61 µM
- GI50 (NCI-H226 lung): 7.82 µM
- TGI (NCI-H226 lung): 24.7 µM
- GI50 (NCI-H23 lung): 11.2 µM
- TGI (NCI-H23 lung): 24.2 µM
- GI50 (NCI-H460 lung): 4.09 µM
- TGI (NCI-H460 lung): 14.9 µM
- GI50 (NCI-H522 lung): 11.2 µM
- TGI (NCI-H522 lung): 24.7 µM
- GI50 (NCI/ADR-RES ovarian): 10.7 µM
- TGI (NCI/ADR-RES ovarian): 23.7 µM
- GI50 (OVCAR-3 ovarian): 2.04 µM
- TGI (OVCAR-3 ovarian): 5.61 µM
- GI50 (OVCAR-4 ovarian): 8.78 µM
- TGI (OVCAR-4 ovarian): 23.1 µM
- GI50 (OVCAR-5 ovarian): 12 µM
- TGI (OVCAR-5 ovarian): 24.4 µM
- GI50 (OVCAR-8 ovarian): 12.3 µM
- TGI (OVCAR-8 ovarian): 30.6 µM
- GI50 (PC-3 prostate): 4.15 µM
- TGI (PC-3 prostate): 18.2 µM
- GI50 (RPMI-8226 leukemia): 3 µM
- TGI (RPMI-8226 leukemia): > 100 µM
- GI50 (RXF 393 renal): 3.7 µM
- TGI (RXF 393 renal): 16 µM
- GI50 (SF-268 CNS): 7.71 µM
- TGI (SF-268 CNS): 22.5 µM
- GI50 (SF-295 CNS): 11.3 µM
- TGI (SF-295 CNS): 23.5 µM
- GI50 (SF-539 CNS): 10.7 µM
- TGI (SF-539 CNS): 22.5 µM
- GI50 (SK-MEL-2 melanoma): 9.45 µM
- TGI (SK-MEL-2 melanoma): 22.3 µM
- GI50 (SK-MEL-28 melanoma): 10.4 µM
- TGI (SK-MEL-28 melanoma): 22.2 µM
- GI50 (SK-MEL-5 melanoma): 10.4 µM
- TGI (SK-MEL-5 melanoma): 22.2 µM
- GI50 (SK-OV-3 ovarian): 13.7 µM
- TGI (SK-OV-3 ovarian): 27.8 µM
- GI50 (SN12C renal): 6.36 µM
- TGI (SN12C renal): 19.9 µM
- GI50 (SNB-19 CNS): 12 µM
- TGI (SNB-19 CNS): 24.3 µM
- GI50 (SNB-75 CNS): 8.41 µM
- TGI (SNB-75 CNS): 22.7 µM
- GI50 (SW-620 colon): 2.24 µM
- TGI (SW-620 colon): 5.06 µM
- GI50 (T-47D breast): 5.16 µM
- TGI (T-47D breast): 19.6 µM
- GI50 (TK-10 renal): 17.4 µM
- TGI (TK-10 renal): 32 µM
- GI50 (U251 CNS): 3.42 µM
- TGI (U251 CNS): 13 µM
- GI50 (UACC-257 melanoma): 11 µM
- TGI (UACC-257 melanoma): 25 µM
- GI50 (UACC-62 melanoma): 6.24 µM
- TGI (UACC-62 melanoma): 19.4 µM
- GI50 (UO-31 renal): 6.41 µM
- TGI (UO-31 renal): 19.9 µM
